# Measured values published in patent US20220079888A1, “PRE-NATAL BETA-CRYPTOXANTHIN BENEFITS CHILDREN” (AGENCY FOR SCIENCE, TECHNOLOGY AND RESEARCH (A*STAR), priority 2019, published 2022).
# System: infants at 24 months
# Assay: Associations of maternal plasma carotenoids concentrations with Bayley Scales of Infant and Toddler Development-III (BSID-III) scores, GUSTO cohort, linear regression
# Assay type: in vivo, human
# Settings: for Cognitive β (95% CI) / Expressive Language β (95% CI) / Fine motor β (95% CI) / Gross motor β (95% CI) / Receptive language β (95% CI): per SD increment in log-transformed maternal plasma concentration
# Procedure: The Bayley Scales of Infant and Toddler Development, 3rd edition (BSID-III) 2006 was administered to infants at 24 (±1) months, in their homes when infants were likely to be alert. This is a standardized test that assesses development of children 1-42 months of age in the following domains: cognitive, receptive and expressive language, and fine and gross motor skills. The test was administered in English, Chinese, Malay or Tamil languages depending on the child's dominant language.
# Data for the present analysis were from the Growing Up in Singapore Towards healthy Outcomes (GUSTO) study a prospective mother-offspring cohort in Singapore (34). Detailed descriptions of the GUSTO study have been published Soh, et al 2014 Int. J Epidemiology 43(5):1401-9, which is hereby incorporated by reference. In brief, pregnant women (≥18 years) in their first trimester (<14 weeks) were recruited from the National University Hospital (NUH) and KK Women's and Children's Hospital (KKH) between June 2009 and September 2010. To be eligible for the study, the pregnant person had to: 1) be a Singapore citizen or permanent residents of Chinese, Malay or Indian ethnicity with homogenous parental ethnic background; 2) have an intention to deliver in the two hospitals and to reside in Singapore for the next five years; and 3) consent to donate birth tissues at delivery. Women receiving chemotherapy, psychotropic drugs or were diagnosed with type-1 diabetes were not eligible to participate. The GUSTO study has received ethical approval from the Institutional Review Board of NUH and KKH, and all procedures were conducted according to the guidelines laid down in the Declaration of Helsinki. Written informed consent was obtained from all participants at study recruitment.
# A total of 1247 pregnant women participated at baseline. The present analysis included pregnant women who had singleton live births (n=1237), in whom plasma carotenoids concentrations were analyzed (n=701), and their offspring completed neurocognitive assessments at 24 months (n=361).
# Administration and scoring was performed by research coordinators trained by the head psychologist from KKH in accordance to the manual. Raw test scores were used as age-specific norms were not available for our population.
# Maternal plasma concentrations of individual carotenoids were summarized according to maternal and infant characteristics for the 419 mother-offspring pairs with data for the cognitive test. Differences in concentrations between groups were compared using non-parametric analyses Wilcoxon rank-sum and Kruskal-Wallis tests, as data were not normally distributed. Bonferroni post hoc analysis was performed to identify groups which differed if the Kruskal Wallis test was significant. The values for individual maternal plasma carotenoids were log-transformed, then converted to standard deviation scores (SDS) for easier interpretation. The BSID-III raw scores were also converted to SDS to facilitate comparison across the cognitive tests and domain scales.
# Associations of each maternal plasma carotenoids with each BSID-III scale in the children were examined using linear regressions. Several statistical models were employed: Model 1 basic model with adjustment for infant's exact age at cognitive testing; Model 2 additional adjustment for maternal age, ethnicity, education, pre-pregnancy BMI, antenatal depression and anxiety levels (potential confounders). We considered Model 2 to be the main model. Further adjustment for infant gestational age, birth weight and breastfeeding duration was performed to examine if any associations found were acting through these factors (Model 3).
# Missing data for covariates were imputed using multiple imputation technique with chained equations (20 times) for the following confounding variables: n=3 maternal education, n=7 EPDS, n=21 STAI, n=40 maternal pre-pregnancy BMI, n=5 infant birthweight and n=10 breastfeeding duration. […]
# [1] = Model 1 (adjusted for infant's age at testing), BSID-III at 24 months, n = 361
# [2] = Model 1, BSID-III at 24 months, n = 361
# [3] = Model 2 (Model 1 plus maternal age, ethnicity, education, pre-pregnancy BMI, parity, antenatal depression and anxiety), 24 months
# [4] = Model 2 (adjusted for confounders), 24 months
# [5] = Model 3 (Model 2 plus infant gestational age, birth weight, breastfeeding duration), 24 months
# [6] = Model 3 (also adjusted for potential mediators), 24 months
SMILES,Cognitive β (95% CI) [1],Expressive Language β (95% CI) [2],Fine motor β (95% CI) [2],Gross motor β (95% CI) [2],Receptive language β (95% CI) [2],Cognitive β (95% CI) [3],Expressive Language β (95% CI) [4],Fine motor β (95% CI) [4],Gross motor β (95% CI) [4],Receptive language β (95% CI) [4],Cognitive β (95% CI) [5],Expressive Language β (95% CI) [6],Fine motor β (95% CI) [6],Gross motor β (95% CI) [6],Receptive language β (95% CI) [6],"association of higher maternal concentrations with cognitive development in infants (BSID-III scales at 24 months, after adjustment for confounders, result in words)","association of higher maternal concentrations with performance in expressive language (24 months, result in words)","association of higher maternal concentrations with receptive language (24 months, result in words)","Expressive Language β (95% CI) (Model 2 (adjusted for confounders), 24 months, listed as lycopene)"
"CC1=C[C@H](O)CC(C)(C)[C@H]1/C=C/C(C)=C/C=C/C(C)=C/C=C/C=C(C)/C=C/C=C(C)/C=C/C1=C(C)C[C@@H](O)CC1(C)C [Lutein, lutein]",0.03 SD,0.004 SD,0.01 SD,0.03 SD,0.08 SD,−0.08 SD,−0.09 SD,0.02 SD,−0.02 SD,−0.04 SD,−0.11 SD,−0.12 SD,−0.04 SD,−0.04 SD,−0.08 SD,–,–,–,–
"CC1=C(/C=C/C(C)=C/C=C/C(C)=C/C=C/C=C(C)/C=C/C=C(C)/C=C/C2=C(C)C[C@@H](O)CC2(C)C)C(C)(C)C[C@H](O)C1 [Zeaxanthin, zeaxanthin]",0.01 SD,−0.09 SD,0.04 SD,0.02 SD,−0.10 SD,0.05 SD,−0.05 SD,0.05 SD,0.04 SD,−0.05 SD,0.05 SD,−0.04 SD,0.05 SD,0.05 SD,−0.04 SD,–,–,–,–
CC1=C(/C=C/C(C)=C/C=C/C(C)=C/C=C/C=C(C)/C=C/C=C(C)/C=C/C2=C(C)CCCC2(C)C)C(C)(C)CCC1 [β-carotene],0.22 SD,0.18 SD,0.14 SD,0.15 SD,0.23 SD,0.16 SD,0.14 SD,0.12 SD,0.14 SD,0.15 SD,0.13 SD,0.10 SD,0.10 SD,0.12 SD,0.11 SD,–,–,–,–
CC1=CCCC(C)(C)C1/C=C/C(C)=C/C=C/C(C)=C/C=C/C=C(C)/C=C/C=C(C)/C=C/C1=C(C)CCCC1(C)C (stereo not drawn) [α-carotene],0.06 SD,0.10 SD,0.08 SD,0.08 SD,0.09 SD,−0.01 SD,0.06 SD,0.06 SD,0.06 SD,0.002 SD,−0.04 SD,0.02 SD,0.05 SD,0.04 SD,−0.04 SD,–,–,–,–
CC1=C(/C=C/C(C)=C/C=C/C(C)=C/C=C/C=C(C)/C=C/C=C(C)/C=C/C2=C(C)C[C@@H](O)CC2(C)C)C(C)(C)CCC1 [β-cryptoxanthin],0.21 SD,0.15 SD,0.17 SD,0.17 SD,0.21 SD,0.18 SD,0.13 SD,0.16 SD,0.16 SD,0.17 SD,0.18 SD,0.12 SD,0.15 SD,0.15 SD,0.16 SD,most consistently associated with better cognitive development,–,–,–
"CC(C)=CCC/C(C)=C/C=C/C(C)=C/C=C/C(C)=C/C=C/C=C(C)/C=C/C=C(C)/C=C/C=C(\C)CCC=C(C)C [Lycopene, lycopene]",0.14 SD,0.15 SD,0.04 SD,0.09 SD,0.11 SD,0.12 SD,0.15 SD,0.03 SD,0.08 SD,0.09 SD,0.11 SD,0.14 SD,0.02 SD,0.09 SD,0.07 SD,–,associated with better performance,not with receptive language,0.15 SD
